According to patent US20250257071A9, “TRICYCLIC COMPOUND, METHOD FOR PREPARING SAME, AND USE THEREOF” (Sichuan Kelun-Biotech Biopharmaceutical Co., Ltd., priority 2021, published 2025):

Columns and labels:
[1] = target: human TLR7 (Homo sapiens (Human), UniProt Q9NYK1); assay: Agonistic activity of compounds on HEK-Blue hTLR7 cells (QUANTI-Blue reporter, OD620); assay type: cell-based; settings: for Emax (OD620): OD620 at maximum activation effect
Protocol: • 1. HEK-Blue hTLR7 cells (Invivogen) were cultured in DMEM medium (Hyclone) containing 10% FBS heat-inactivated fetal bovine serum (Corning). On the day of detection, the cell state was observed under a microscope, the cells were collected and resuspended, and the cell concentration was adjusted after counting, 50 μL per well, the total amount of cells was 2×10^4, and the cells were inoculated in a 96-well plate. • 2. After the cells adhered to the wall overnight, 50 μL of the test compound at different concentrations was added into the well plate, so that the final concentrations were 100 μM, 33.3 μM, 11.11 μM, 3.70 μM, 1.23 μM, 0.41 μM, 0.14 μM, 0.05 μM, 0 μM, and the final concentration of DMSO was 1%. The compound was incubated with the cells in a 37° C., 5% CO2 incubator for 20 h. • 3. After the incubation, observation under microscope was performed to determine the maximum signal well, the states of the cells with the highest and lowest concentrations of the compound, and whether the compound will crystalize at high concentration. 10 μL of cell culture supermatant was taken and transferred to a new 96-well transparent plate, 90 μL of QUANTI-Blue (Invivogen) detection reagent was added to each well, and incubated at 37° C. for 3 h, and OD620 was read with a multifunctional microplate reader (BMG LABTECH). • 4. EC50 was calculated by fitting with Graphpad Prism software log(agonist) vs. response—Variable slope, and Emax was the (D620 at which the activation effect of the test compound reached the maximum.

[2] = target: human TLR8 (Homo sapiens (Human), UniProt Q9NR97); assay: Agonistic activity of compounds on HEK-Blue hTLR8 cells (QUANTI-Blue reporter, OD620); assay type: cell-based; settings: for Emax (OD620): OD620 at maximum activation effect
Protocol: • 1. HEK-Blue hTLR8 cells (Invivogen) were cultured in DMEM medium (Hyclone) containing 10% FBS heat-inactivated fetal bovine serum (Corning). On the day of detection, the cell state was observed under a microscope, the cells were collected and resuspended, and the cell concentration was adjusted after counting, 50 μL per well, the total amount of cells was 2×10^4, and the cells were inoculated in a 96-well plate. • 2. After the cells adhered to the wall overnight, 50 μL of the test compound at different concentrations was added to the well plate, so that the final concentrations were 100 μM, 25 μM, 6.25 μM, 1.56 μM, 0.39 μM, 0.10 μM, 0.02 μM, 0.006 μM, 0 μM, or 100 μM, 33.3 μM, 11.11 μM, 3.70 μM, 1.23 μM, 0.41 μM, 0.14 μM, 0.05 μM, 0 μM, and the final concentration of DMSO was 1%. The compound was incubated with the cells in a 37° C., 5% CO2 incubator for 20 hours. • 3. After the incubation, observation was performed under microscope to determine the maximum signal well, the state of the cells with the highest and lowest concentrations of the compound, and whether the compound will crystalize at high concentration. 10 μL of cell culture supernatant was transferred to a new 96-well transparent plate, added with 90 μL of QUANTI-Blue (Invivogen) detection reagent to each well, incubated at 37° C. for 3 hours, and OD620 was read with a multifunctional microplate reader (BMG LABTECH). • 4. EC50 was calculated by fitting with Graphpad Prism software log(agonist) vs. Response—Variable slope, and Emax was the OD620 at which the activation effect of the test compound reached the maximum.

Sequence of human TLR8 (Q9NR97 27-1041): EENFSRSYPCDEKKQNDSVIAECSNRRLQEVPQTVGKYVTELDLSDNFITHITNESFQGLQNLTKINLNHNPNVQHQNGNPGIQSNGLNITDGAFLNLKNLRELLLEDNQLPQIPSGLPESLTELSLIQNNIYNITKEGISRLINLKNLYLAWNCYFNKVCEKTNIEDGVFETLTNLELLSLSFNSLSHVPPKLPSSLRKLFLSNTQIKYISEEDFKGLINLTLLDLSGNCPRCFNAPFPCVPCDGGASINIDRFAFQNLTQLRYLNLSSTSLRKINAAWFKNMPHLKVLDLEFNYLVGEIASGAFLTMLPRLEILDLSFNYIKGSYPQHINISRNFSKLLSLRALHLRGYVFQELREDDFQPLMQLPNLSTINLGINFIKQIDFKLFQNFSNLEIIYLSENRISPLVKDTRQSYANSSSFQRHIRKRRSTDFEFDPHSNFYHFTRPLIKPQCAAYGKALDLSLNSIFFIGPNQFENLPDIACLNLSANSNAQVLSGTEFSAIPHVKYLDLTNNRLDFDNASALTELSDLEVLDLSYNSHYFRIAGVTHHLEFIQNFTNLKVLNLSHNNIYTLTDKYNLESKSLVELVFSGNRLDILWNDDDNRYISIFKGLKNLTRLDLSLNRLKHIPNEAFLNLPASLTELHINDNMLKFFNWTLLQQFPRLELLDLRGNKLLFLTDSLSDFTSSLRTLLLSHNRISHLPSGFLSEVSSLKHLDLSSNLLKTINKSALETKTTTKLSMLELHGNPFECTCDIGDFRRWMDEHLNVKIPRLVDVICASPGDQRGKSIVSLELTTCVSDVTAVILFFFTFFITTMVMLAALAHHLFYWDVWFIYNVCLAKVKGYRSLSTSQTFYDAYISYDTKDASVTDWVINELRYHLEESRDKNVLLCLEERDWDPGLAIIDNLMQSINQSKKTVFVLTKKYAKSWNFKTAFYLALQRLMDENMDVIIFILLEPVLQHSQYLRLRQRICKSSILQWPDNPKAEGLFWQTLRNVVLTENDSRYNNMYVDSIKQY
Sequence of human TLR7 (Q9NYK1 27-1049): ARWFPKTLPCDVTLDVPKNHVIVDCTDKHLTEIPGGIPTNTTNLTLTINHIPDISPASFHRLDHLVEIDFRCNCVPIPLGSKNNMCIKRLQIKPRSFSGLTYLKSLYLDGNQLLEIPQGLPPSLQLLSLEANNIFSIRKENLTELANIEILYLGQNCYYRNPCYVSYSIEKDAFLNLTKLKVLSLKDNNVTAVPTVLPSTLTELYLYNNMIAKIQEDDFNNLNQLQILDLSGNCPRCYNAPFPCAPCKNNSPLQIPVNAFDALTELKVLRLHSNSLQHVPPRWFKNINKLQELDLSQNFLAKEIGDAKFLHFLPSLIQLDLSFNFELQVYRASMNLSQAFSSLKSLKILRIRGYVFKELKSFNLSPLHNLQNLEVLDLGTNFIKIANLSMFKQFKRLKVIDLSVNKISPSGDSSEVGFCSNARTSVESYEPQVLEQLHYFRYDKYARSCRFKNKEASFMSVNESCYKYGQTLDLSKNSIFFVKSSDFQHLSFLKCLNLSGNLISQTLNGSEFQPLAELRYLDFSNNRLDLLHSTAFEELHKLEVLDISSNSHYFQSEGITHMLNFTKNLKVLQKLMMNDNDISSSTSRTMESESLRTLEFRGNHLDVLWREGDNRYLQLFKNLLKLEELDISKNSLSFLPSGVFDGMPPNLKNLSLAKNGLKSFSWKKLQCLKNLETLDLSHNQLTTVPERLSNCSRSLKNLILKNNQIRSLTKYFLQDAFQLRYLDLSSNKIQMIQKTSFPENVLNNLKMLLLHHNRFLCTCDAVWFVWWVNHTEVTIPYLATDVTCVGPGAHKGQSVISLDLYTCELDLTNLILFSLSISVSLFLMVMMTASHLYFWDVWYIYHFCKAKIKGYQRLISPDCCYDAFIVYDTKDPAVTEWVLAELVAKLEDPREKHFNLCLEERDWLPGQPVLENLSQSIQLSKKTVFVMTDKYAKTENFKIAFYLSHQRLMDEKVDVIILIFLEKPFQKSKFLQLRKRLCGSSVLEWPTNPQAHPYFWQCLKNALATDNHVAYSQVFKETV

Compound | activation effect on human TLR7 (in words) [1] | Emax (OD620) [1] [OD620] | activation effect on human TLR8 (in words) [2] | Emax (OD620) [2] [OD620]
CCCCc1nc2c(N)nc3ccsc3c2n1CCCCN [Compound 2, 1-(4-aminobutyl)-2-butyl-1H-imidazo[4,5-d]thieno[3,2-b]pyridine-4-amine] | strong activation effect | 1.36 | strong activation effect | 1.37
CCCCc1nc2c(N)nc3ccsc3c2n1CC1CCN(C)CC1 [Compound 27, 2-butyl-1-[(1-methylhexahydropyridin-4-yl)methyl]thieno[3,2-b]imidazo[4,5-d]pyridine-4-amine] | strong activation effect | 1.59 | strong activation effect | 0.84
CCCCc1nc2c(N)nc3cc(C4CCN(C)CC4)sc3c2[nH]1 [Compound 6, 2-butyl-7-(1-methylpiperidin-4-yl)-1H-imidazo[4,5-d]thieno[3,2-b]pyridine-4-amine] | strong activation effect | 1.08 | strong activation effect | 1.11
CCCCc1nc2c(N)nc3cc(C)sc3c2n1CC1CCNCC1 [Compound 3, 2-butyl-7-methyl-1-(piperidin-4-ylmethyl)-1H-imidazo[4,5-d]thieno[3,2-b]pyridine-4-amine] | strong activation effect | 1.43 | strong activation effect | 1.86
CCCCc1nc2c(N)nc3cc(C)sc3c2n1CCCCN [Compound 1, 1-(4-aminobutyl)-2-butyl-7-methyl-1H-imidazo[4,5-d]thieno[3,2-b]pyridine-4-amine] | strong activation effect | 1.36 | strong activation effect | 1.43
CCCCc1nc2c(N)nc3cc(C4CCNCC4)sc3c2n1CC1CCOCC1 [Compound 33, 2-butyl-7-(hexahydropyridin-4-yl)-1-(3,4,5,6-tetrahydro-2H-pyran-4-ylmethyl)thieno[3,2-b]imidazo[4,5-d]pyridine-4-amine] | strong activation effect | 1.46 | strong activation effect | 0.67
